{"source": "patent US12005095B2", "about": "“Eutectic extraction solvents, extraction methods by eutectigenesis using said solvents, and extracts derived from said extraction methods” (Givaudan France Naturals SAS, priority 2015, dated 2024)", "origin": "cited, not measured here", "tested_on": "cellular melanogenesis", "data": [{"smiles": "O=C1c2c(O)cc(O)cc2O[C@H](c2ccc(O)c(O)c2)[C@H]1O", "note": "[taxifolin]", "values": [{"measurement": "effect on cellular melanogenesis, in words", "result": "inhibit cellular melanogenesis"}]}]}
